In the Deep4Chem optical property database:
“And” between values parts separate entries of the source, which are not always exact repeats. Equal entries are not always repeated. Each block holds one compound with its values, some of them ahead of it.

Assay: solvent given as SMILES

absorption maximum (in ClCCl): 356 nm
Compound: Cc1cccc2nc(-c3ccc(-c4cc(=O)cc(-c5ccccc5)o4)cc3)c(NC3CCCCC3)n12

absorption maximum (in CC#N): 360 nm
Compound: CC1(C)CC(=O)c2c(F)c(F)c(F)c(F)c2N1

absorption maximum (in ClCCl): 533 nm
Compound: F[B-]1(F)n2c(Oc3ccccc3)c(Cl)c(Br)c2C(Oc2ccccc2)=C2C(Br)=C(Cl)C(Oc3ccccc3)=[N+]21

absorption maximum (in CC#N): 475 nm
Compound: C[C@]12SC(=O)C=C1c1nc(-c3ccc(Cl)cc3Cl)[nH]c1C1=CC(=O)S[C@@]12C

absorption maximum (in ClCCl): 368 nm
Compound: CCCCC(CC)COc1ccc2nc(-c3ccc(-c4ccccc4)s3)sc2c1 (centres undefined)

absorption maximum (in ClCCl): 473 nm
Compound: CCCc1ccc(C#Cc2cc(C#Cc3ccc(CCC)cc3)c3ccc4c(C#Cc5ccc(N(C)C)cc5)cc(C#Cc5ccc(CCC)cc5)c5ccc2c3c54)cc1

absorption maximum (in C1CCOC1): 344 nm
Compound: N#Cc1c(N2CCCCC2)cc(-c2cccc3ccccc23)c2c1C(=O)c1ccccc1-2

absorption maximum (in CN(C)C=O): 575 nm
absorption maximum (in ClC(Cl)Cl): 575 nm
Compound: O=C1C2=C3c4ccsc4C=CN3C(=O)C2=C2c3ccsc3C=CN12

absorption maximum (in ClCCl): 334 nm
Compound: COc1ccc(C(=O)NC(C)(C)C)c2c1ccc1c3ccccc3c3ccccc3c12

absorption maximum (in ClCCl): 535 nm
Compound: COc1ccc(C2=C(C)C3=C(c4c(-c5ccccn5)nc5ccccn45)c4c(C)cc(C)n4[B-](F)(F)[N+]3=C2C)cc1

absorption maximum (in ClC(Cl)Cl): 325 nm
Compound: FC(F)(F)c1ccc(-c2nc(-c3ccc(C(F)(F)F)cc3)n3ccccc23)cc1

Compound: CC1(C)c2ccccc2N(c2ccc(-c3cc(C#N)c(C#N)cc3-c3ccc(N4c5ccccc5C(C)(C)c5ccccc54)cc3)cc2)c2ccccc21
absorption maximum (in Cc1ccccc1): 384 nm

Compound: COc1ccc(N(c2ccc(/C=C(\C)c3ccccc3)cc2)c2ccc(OC)cc2)cc1
absorption maximum (in Cc1ccccc1): 347 nm

absorption maximum (in ClCCl): 402 nm
Compound: CCCCCCN1C(=O)c2cccc3c(-c4ccc(-c5cc(-c6ccc(C)cc6)n(-c6ccccc6)n5)s4)ccc(c23)C1=O

absorption maximum (in ClCCl): 394 nm
Compound: O=c1c2ccccc2n(-c2ccc(-c3ccc(-n4c5ccccc5c5ccccc54)cc3)cc2)c2ccccc12

absorption maximum (in C1CCOC1): 340 nm
Compound: O=P(c1ccccc1)(c1ccccc1)n1c2ccccc2c2cc(-n3c4ccccc4c4ccccc43)ccc21

absorption maximum (in ClC(Cl)Cl): 330 nm
Compound: CCCCn1c2ccccc2c2ccc3c4cc(-c5ccccc5)ccc4n(CCCC)c3c21

absorption maximum (in C1CCOC1): 366 nm
Compound: C(=C1c2ccccc2-c2ccccc21)c1ccc(-c2ccc(C=C3c4ccccc4-c4ccccc43)cc2)cc1

absorption maximum (in ClCCl): 431 nm
Compound: CCCCCCCCCCCCN1C(=O)c2c(c3ccc4cc(-c5ccc(F)cc5)c(OC)cc4c3c3c2ccc2cc(-c4ccc(F)cc4)c(OC)cc23)C1=O

absorption maximum (in CCO): 358 nm
Compound: CCOC(=O)/C=C/c1cc2ccc(-c3cn(Cc4ccccc4)nn3)cc2oc1=O

absorption maximum (in ClCCl): 438 nm
Compound: CCCCN(CCCC)c1ccc(C#Cc2cc(C#Cc3ccc(C(F)(F)F)cc3)c(C#Cc3ccc(N(CCCC)CCCC)cc3)cc2C#Cc2ccc(C(F)(F)F)cc2)cc1

absorption maximum (in ClC(Cl)Cl): 357 nm
Compound: COc1ccc(-c2nc(-c3ccccc3)c(N(c3ccccc3)c3ccccc3)s2)cc1

absorption maximum (in CCCCCC): 420 nm
Compound: Cc1cc(C)c(B(c2cc3c4c(c(B(c5c(C)cc(C)cc5C)c5c(C)cc(C)cc5C)cc5c4c2CCC5)CCC3)c2c(C)cc(C)cc2C)c(C)c1

absorption maximum (in O): 350 nm
Compound: COc1cc2cc(-c3ccc(C(=O)OCOC(C)=O)cc3C(=O)OCOC(C)=O)oc2cc1N1CCOCCOCCN(c2cc3oc(-c4ccc(C(=O)OCOC(C)=O)cc4C(=O)OCOC(C)=O)cc3cc2OC)CCOCCOCC1

absorption maximum (in CO): 574 nm
absorption maximum (in ClC(Cl)Cl): 617 nm
Compound: Cc1nc2c(ccc3c2sc(/C=C/C=C/c2ccc(N(C)C)cc2)[n+]3C)s1

absorption maximum (in C1CCCCC1): 387 nm and 384 nm
absorption maximum (in CC#N): 388 nm
absorption maximum (in CC(C)O): 389 nm
absorption maximum (in CO): 389 nm
absorption maximum (in CS(C)=O): 396 nm
absorption maximum (in ClC(Cl)Cl): 383 nm
absorption maximum (in c1ccccc1): 392 nm
Compound: CN(C)c1ccc2nc(-c3ccc(C(=O)Nc4ccccc4)cc3)sc2c1

absorption maximum (in C1CCCCC1): 377 nm
absorption maximum (in CC#N): 377 nm
absorption maximum (in CO): 372 nm
absorption maximum (in ClCCl): 380 nm
absorption maximum (in O): 430 nm
Compound: N#Cc1ccc(-c2nc(-c3ccccc3)c3ccccn23)cc1

Compound: O=C(c1ccc(N2c3ccccc3Oc3ccccc32)cc1)c1cccc(C(=O)c2ccc(N3c4ccccc4Oc4ccccc43)cc2)c1
absorption maximum (in Cc1ccccc1): 416 nm

absorption maximum (in CCCCCC): 338 nm
absorption maximum (in CO): 338 nm
absorption maximum (in ClCCl): 341 nm
Compound: CC(C)(C)c1ccc2ccc3cccc4ccc1c2c34

absorption maximum (in CC#N): 401 nm
absorption maximum (in CO): 407 nm
Compound: O=C1c2ccccc2-c2c(-c3ccccc3)c(-c3ccccc3)c(-c3ccccc3)c3cccc1c23

absorption maximum (in CCO): 377 nm
Compound: CC(C)Nc1cc2sc3cc(NC(C)C)c(F)cc3c(=O)c2cc1F

Compound: COc1ccc(-c2csc(/C(C#N)=N\Nc3ccc(C#N)cc3)n2)cc1
absorption maximum (in CC#N): 401 nm
absorption maximum (in CCO): 403 nm
absorption maximum (in CN(C)C=O): 481 nm
absorption maximum (in Cc1ccccc1): 405 nm
absorption maximum (in ClCCl): 404 nm

absorption maximum (in C1CCOC1): 573 nm
absorption maximum (in ClCCl): 561 nm
Compound: CC1=C(C#Cc2ccccc2)C(C)=[N+]2C1=C(c1ccccc1)c1c(C)c(C#Cc3ccccc3)c(C)n1[B-]2(F)F

absorption maximum (in CC#N): 407 nm
absorption maximum (in O): 415 nm
Compound: Nc1nc2ccccc2[n+]([O-])n1

absorption maximum (in CC#N): 261 nm
Compound: c1ccc(COc2cc(C[n+]3ccc(-c4cc[n+](Cc5cc(OCc6ccccc6)cc(OCc6ccccc6)c5)cc4)cc3)cc(OCc3ccccc3)c2)cc1

absorption maximum (in ClCCl): 372 nm
Compound: c1ccc(N(c2ccccc2)c2ccc(-c3ccc4c(c3)C3(c5cc(-c6ccc(N(c7ccccc7)c7ccccc7)cc6)ccc5-4)c4ccccc4N(c4ccccc4)c4ccccc43)cc2)cc1

absorption maximum (in ClCCl): 350 nm
Compound: CN(C)c1cccc(/C=C/c2ncc(-c3ccc(OCc4ccccc4)c(OCc4ccccc4)c3)o2)c1

absorption maximum (in CO): 435 nm
Compound: Cc1cc(C)c(B(c2cc(-c3ccc(N(C)C)cc3)sc2-c2sc(-c3ccc(N(C)C)cc3)cc2P(=O)(c2ccccc2)c2ccccc2)c2c(C)cc(C)cc2C)c(C)c1

absorption maximum (in C1COCCO1): 334 nm
absorption maximum (in CC#N): 326 nm
absorption maximum (in CO): 327 nm
absorption maximum (in ClCCl): 324 nm
Compound: CN(C)c1nc(N)nc2c1nc(C#N)n2Cc1ccccc1

Compound: CC[n+]1ccc2ccccc2c1/C=C/c1c([O-])ccc2ccc(=O)oc12
absorption maximum (in C1CCOC1): 629.86 nm
absorption maximum (in CC#N): 591.03 nm
absorption maximum (in CC(C)=O): 603.44 nm
absorption maximum (in CO): 535.64 nm
absorption maximum (in CS(C)=O): 593.42 nm
absorption maximum (in Cc1ccccc1): 655.01 nm
absorption maximum (in ClC(Cl)Cl): 614.58 nm
absorption maximum (in ClCCl): 614.58 nm
absorption maximum (in O): 491.71 nm

absorption maximum (in ClC(Cl)Cl): 377 nm
Compound: c1ccc2c(-c3ccc(-n4c5ccccc5c5ccccc54)cc3)c3c(nc2c1)-c1cc2c(cc1CC3)-c1nc3ccccc3c(-c3ccc(-n4c5ccccc5c5ccccc54)cc3)c1CC2

absorption maximum (in CS(C)=O): 299 nm
Compound: O=C1CC(=O)Nc2cc(Br)ccc2N1

absorption maximum (in ClCCl): 477 nm
Compound: CCCCCCOc1cc(C=C(C#N)C#N)c(OCCCCCC)cc1C=C(C#N)C#N

absorption maximum (in CC#N): 520 nm
Compound: N#CC(/N=C/c1c(O)ccc2ccccc12)=C(C#N)/N=C/c1c(O)ccc2ccccc12

absorption maximum (in CC1CCCO1): 475 nm
Compound: COc1c(Br)c2cc(=O)oc3ccc4cccc1c4c32

absorption maximum (in ClCCl): 422 nm
Compound: C(=C\c1ccncn1)/c1ccc(N(c2ccccc2)c2ccc(/C=C/c3ccncn3)cc2)cc1

absorption maximum (in CCO): 500 nm
Compound: CCCCOc1c(C=C2N(C)c3ccccc3C2(C)C)c(=O)c1=S
